These results are taken from patent US7148353B2 (priority 2003, dated 2006).

A word on the IC50: it is the concentration at which inhibition is half-maximal.

Chain of peripheral benzodiazepine receptors (P16257 whole entry): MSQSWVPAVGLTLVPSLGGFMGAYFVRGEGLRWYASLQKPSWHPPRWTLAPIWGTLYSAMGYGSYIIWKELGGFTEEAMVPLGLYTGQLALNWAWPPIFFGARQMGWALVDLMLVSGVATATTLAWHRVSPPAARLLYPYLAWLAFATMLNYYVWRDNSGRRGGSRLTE

Tested on in one experiment: not listed separately
Kind of experiment: maze test, which tests anxiety. Particulars: at 10 mg/kg. The class given is in vivo. As for the experimental part: The compounds of Example 1d (also found in Example 6d), Example 22d, and Example 35d, were also tested in vivo using the maze test, which tests anxiety [Montgomery, J. Comparative and Physiological Psychology 48, 254–60 (1955); Handley et al., Naunyn-Schmiedeberg's Archives of Pharmacology 327, 1–5 (1984); Lister, Psychopharm. 92, 180–85 (1987); Pellow et al., J. Neuroscience Methods 14, 149–67 (1985); Rodgers et al., Ethology and Psychopharmacology, S. J. Cooper and C. A. Hendrie (eds), John Wiley & Sons, Ltd., 9–43 (1994); and Trullas et al., Psychopharm. 111, 323–31 (1993)]. The results of the maze test for these compounds are found in FIGS. 1a, 1b, 2a, 2b, 3a, and 3b. FIGS. 1a, 2a, and 3a are graphs of the Number of Entries in Open Arms vs. mg/kg (dose of administered compound). FIGS. 1b, 2b, and 3b plot the Percent of Time Spent in Open Arms vs. mg/kg (dose of administered compound). […] The results of the maze test are accepted by persons of skill in the art as predictive of therapeutic utility.
`Cc1ccc(-c2nc3ccc(C)cn3c2CC(=O)c2cccs2)cc1` [Example 1d, 2-(6-Methyl-2-p-tolyl-imidazo[1,2-a]pyridin-3-yl)-1-thiophen-2-yl-ethanone]: the “maze test activity (Number of Entries in Open Arms, Percent of Time Spent in Open Arms)” value is given as “statistically significant activity”.

In the case of `COc1ccsc1C(=O)Cc1c(-c2ccc(C)cc2)nc2ccc(C)cn12` [Example 22d, 1-(3-Methoxy-thiophen-2-yl)-2-(6-methyl-2-p-tolyl-imidazo[1,2-a]pyridin-3-yl)-ethanone], the “maze test activity (Number of Entries in Open Arms, Percent of Time Spent in Open Arms)” value is given as “statistically significant activity”.

The next experiment has as its target peripheral benzodiazepine receptors (Rattus norvegicus, UniProt P16257). Description: biochemical. The class given is binding. Particulars: IC50 (nM) peripheral, Table 1a. How it is done: Compounds of the invention were assessed for their binding to the benzodiazepine receptor by the test of Speth et al. [Life Sci. 24, 351 (1979)] for central benzodiazepine receptors and LeFur et al. [Life Sci. 33, 449 (1983)] for peripheral receptors. The compounds were tested first at 1.0E-09, 1.0E-07 and 1.0E-05 M in single determination. […] The specific ligand binding to the receptor is defined as the difference between the total binding and the nonspecific binding determined in the presence of an excess of unlabelled ligand. In each experiment, the respective reference compound was tested concurrently with the test compounds in order to assess the assay suitability. It was tested at several concentrations (for IC50 value determination), and the data were compared with historical values. The assay was rendered valid if suitability criteria were met.
Consider `Cc1ccc(-c2nc3ccc(C)cn3c2CC(=O)c2ccc(Cl)cc2)cc1` [Example 3d, 1-(4-Chloro-phenyl)-2-(6-methyl-2-p-tolyl-imidazo[1,2-a]pyridin-3-yl)-ethanone], for which half-maximal inhibition (IC50) required 594 nM. `Cc1ccc(-c2nc3ccc(C)cn3c2CC(=O)c2ccccc2)cc1` [Example 4d, 2-(6-Methyl-2-p-tolyl-imidazo[1,2-a]pyridin-3-yl)-1-phenyl-ethanone] displayed a concentration for half-maximal inhibition (IC50) of 386 nM.

The same experiment, now with this note: Table 1a; read-out: IC50 (nM) peripheral.
`Cc1ccc(-c2nc3ccc(C)cn3c2CC(=O)C2CCCC2)cc1`: the IC50 stood at 310 nM. The same measure, in the same setting: for `Cc1ccc(-c2nc3ccc(C)cn3c2CC(=O)C(C)C)cc1` the value was 820 nM. Take `Cc1ccc(-c2nc3ccc(C)cn3c2CC(=O)C2CC2)cc1`: the IC50 stood at 560 nM.

As for `Cc1ccc(-c2nc3ccc(C)cn3c2CC(=O)c2ccsc2)cc1`, the IC50 came to 240 nM.

Turning to `Cc1ccc(-c2nc3ccc(C)cn3c2CC(=O)c2nccs2)cc1`, the IC50 was determined as 1600 nM.

On to `Cc1ccc(-c2nc3ccc(C)cn3c2CC(=O)c2ccco2)cc1`, for which the IC50 worked out at 1600 nM. Regarding `Cc1ccc(-c2nc3ccc(C)cn3c2CC(=O)c2cncnc2)cc1`, the 50% inhibitory concentration (IC50) worked out at 3400 nM. Consider `Cc1ccc(-c2nc3ccc(C)cn3c2CC(=O)c2sc(C)nc2C)cc1`, for which the IC50 is 2000 nM. In the case of `Cc1ccc(-c2nc3ccc(C)cn3c2CC(=O)c2ccoc2)cc1`, the IC50 stood at 400 nM. Turning to `Cc1ccc(-c2nc3ccc(C)cn3c2CC(=O)c2c(C)nn(C)c2C)cc1`, the IC50 is more than 10000 nM. `Cc1ccc(-c2nc3ccc(C)cn3c2CC(=O)c2nn(-c3ccccc3)nc2C)cc1`: the IC50 was determined as 7600 nM. As for `Cc1ccc(-c2nc3ccc(C)cn3c2CC(=O)c2c(C)nn(-c3ccccc3)c2C)cc1`, the half-maximal inhibitory concentration (IC50) was more than 10000 nM. On to `Cc1ccc(-c2nc3ccc(C)cn3c2CC(=O)c2c(C)nc3cc(C)ccn23)cc1`, for which the IC50 was determined as 210 nM. With `Cc1ccc(-c2nc3ccc(C)cn3c2CC(=O)c2cc3ccccc3s2)cc1`, the IC50 was 220 nM. In the case of `Cc1ccc(-c2nc3ccc(C)cn3c2CC(=O)c2cc3c(C)nn(C)c3s2)cc1`, the IC50 came out at 2100 nM. Consider `Cc1ccc(-c2nc3ccc(C)cn3c2CC(=O)Cc2cccs2)cc1`, for which the half-maximal inhibitory concentration (IC50) came to 59 nM. Consider `Cc1ccc(-c2nc3ccc(C)cn3c2CC(=O)C2COc3ccccc3O2)cc1` (stereo not shown), for which the IC50 came to 32 nM.

With `Cc1ccc(-c2nc3ccc(C)cn3c2CC(=O)c2snnc2C)cc1`, the half-inhibitory concentration (IC50) stood at 320 nM.

For the compound `Cc1ccc(-c2nc3ccc(C)cn3c2CC(=O)c2sccc2Cl)cc1`, the IC50 came to 840 nM. As to `Cc1ccc(-c2nc3ccc(C)cn3c2CC(=O)c2cncn2C)cc1`, the 50% inhibitory concentration (IC50) amounted to 3100 nM. On to `Cc1ccc(-c2nc3ccc(C)cn3c2CC(=O)c2c(C)noc2C)cc1`, for which the IC50 was determined as 1200 nM. For `Cc1ccc(-c2nc3ccc(C)cn3c2CC(=O)c2scc(S(C)(=O)=O)c2Cl)cc1`, the IC50 stood at 730 nM. With `Cc1ccc(-c2nc3ccc(C)cn3c2CC(=O)c2cc(C)nn2C)cc1`, the IC50 is 810 nM. In the case of `Cc1ccc(-c2nc3ccc(C)cn3c2CC(=O)c2cc(C)on2)cc1`, the IC50 stood at 560 nM. Take `Cc1ccc(-c2nc3ccc(C)cn3c2CC(=O)c2cn(C)cn2)cc1`: the IC50 was more than 10000 nM. Consider `Cc1ccc(-c2nc3ccc(C)cn3c2CC(=O)c2csc(-c3cccs3)n2)cc1`, for which the IC50 is more than 10000 nM.

Consider `Cc1ccc(-c2nc3ccc(C)cn3c2CC(=O)c2sccc2C)cc1`, for which the IC50 worked out at 230 nM. `Cc1ccc(-c2nc3ccc(C)cn3c2CC(=O)c2nsc(Cl)c2Cl)cc1`: the IC50 is 1700 nM.

For the compound `Cc1ccc(-c2nc3ccc(C)cn3c2CC(=O)c2ccc(C)s2)cc1`, the concentration for half-maximal inhibition (IC50) is 1800 nM.

Turning to `Cc1ccc(-c2nc3ccc(C)cn3c2CC(=O)c2cc(C)n(C)n2)cc1`, the concentration for half-maximal inhibition (IC50) amounted to 1300 nM. For the compound `Cc1ccc(-c2nc3ccc(C)cn3c2CC(=O)c2nccn2C)cc1`, the IC50 is more than 10000 nM. For the compound `CCn1nc(C)c(Br)c1C(=O)Cc1c(-c2ccc(C)cc2)nc2ccc(C)cn12`, the half-maximal inhibitory concentration (IC50) amounted to 2100 nM. Same read-out and setting: for `Cc1ccc(-c2nc3ccc(C)cn3c2CC(=O)c2nnn(C)c2C)cc1` the value was more than 10000 nM.

For `CSc1ccc(C(=O)Cc2c(-c3ccc(C)cc3)nc3ccc(C)cn23)s1`, the half-maximal inhibitory concentration (IC50) came out at 6000 nM. Take `Cc1ccc(-c2nc3ccc(C)cn3c2CC(=O)c2cn(-c3cccc(C)n3)cn2)cc1`: the half-inhibitory concentration (IC50) turned out to be 6600 nM.

For `Cc1ccc(-c2nc3ccc(C)cn3c2CC(=O)CCc2ccccc2)cc1`, the concentration for half-maximal inhibition (IC50) is 290 nM. For `CC(=O)Cc1c(-c2ccc(C)cc2)nc2ccc(C)cn12` [Example 2d, 1-(6-Methyl-2-p-tolyl-imidazo[1,2-a]pyridin-3-yl)-propan-2-one], the IC50 came to 231 nM. For the compound `CCCCCC(=O)Cc1c(-c2ccc(C)cc2)nc2ccc(C)cn12` [Example 5d, 1-(6-Methyl-2-p-tolyl-imidazo[1,2-a]pyridin-3-yl)-heptan-2-one], the IC50 came to 269 nM.

In the case of `Cc1ccc(-c2nc3ccc(C)cn3c2CC(=O)c2cccs2)cc1` [drawing 97], the IC50 was found to be 153 nM.

As to `COc1ccsc1C(=O)Cc1c(-c2ccc(C)cc2)nc2ccc(C)cn12` [drawing 131], the IC50 was 180 nM. In the case of `Cc1ccc(-c2nc3ccc(C)cn3c2CC(=O)CC(C)C)cc1` [—CH2CH(CH3)2], the 50% inhibitory concentration (IC50) turned out to be 820 nM.

Staying with this experiment, now noted: Table 1b; read-out: IC50 (nM) peripheral.
Consider `Cc1cc(Cl)cn2c(CC(=O)c3ccoc3)c(-c3ccc(Cl)cc3)nc12`, for which the half-maximal inhibitory concentration (IC50) was 350 nM. Consider `Cc1cc(Cl)cn2c(CC(=O)c3cccs3)c(-c3ccc(Cl)cc3)nc12`, for which the IC50 is 590 nM. Turning to `O=C(Cc1c(-c2ccc(Cl)cc2)nc2ccccn12)c1cccs1`, the IC50 came to 2600 nM. Turning to `O=C(Cc1c(-c2ccc(Cl)cc2)nc2ccc(Cl)cn12)c1cccs1`, the IC50 was determined as 290 nM.

Turning to `COc1ccc(-c2nc3ccc(C)cn3c2CC(=O)c2cc(C)nn2C)cc1`, the IC50 amounted to 2300 nM.

With `COc1ccc(-c2nc3ccc(C)cn3c2CC(=O)c2cccs2)cc1`, the half-maximal inhibitory concentration (IC50) was determined as 2400 nM.

Still in this experiment, the particulars now being: Table 2; read-out: IC50 (nM) peripheral.
On to `Cc1ccc(-c2nc3ccc(C)cn3c2C2CCCNC2=O)cc1` (stereo not shown), for which the half-maximal inhibitory concentration (IC50) is more than 10000 nM. In the case of `Cc1ccc(-c2nc3ccc(C)cn3c2C2CC=CCN(C)C2=O)cc1` (stereo not shown), the IC50 was 210 nM. The same measure, in the same setting: the value for `Cc1ccc(-c2nc3ccc(C)cn3c2C2CCCN(C)C2=O)cc1` (stereo not shown) [drawing 151] was 1240 nM. The same measure, in the same setting: the value for `Cc1ccc(-c2nc3ccc(C)cn3c2C2CCCN(C)C2=O)cc1` (stereo not shown) [drawing 155] was 1500 nM; that for `Cc1ccc(-c2nc3ccc(C)cn3c2C2CCCN(C)C2=O)cc1` (stereo not shown) [drawing 156] was more than 10000 nM.

A further experiment concerns the target central benzodiazepine receptors. Description: binding to central benzodiazepine receptors, displacement of 3H-flunitrazepam (test of Speth et al.). To be noted: Table 1a. In general terms: Loss of bound radioactivity is the signal in a displacement assay; it reports binding, not function.
`CC(=O)Cc1c(-c2ccc(C)cc2)nc2ccc(C)cn12` [Example 2d, 1-(6-Methyl-2-p-tolyl-imidazo[1,2-a]pyridin-3-yl)-propan-2-one] returned an IC50 of 439 nM. As to `Cc1ccc(-c2nc3ccc(C)cn3c2CC(=O)c2ccc(Cl)cc2)cc1` [Example 3d, 1-(4-Chloro-phenyl)-2-(6-methyl-2-p-tolyl-imidazo[1,2-a]pyridin-3-yl)-ethanone], the half-inhibitory concentration (IC50) was 4060 nM. Turning to `Cc1ccc(-c2nc3ccc(C)cn3c2CC(=O)c2ccccc2)cc1` [Example 4d, 2-(6-Methyl-2-p-tolyl-imidazo[1,2-a]pyridin-3-yl)-1-phenyl-ethanone], the IC50 stood at 1750 nM. `CCCCCC(=O)Cc1c(-c2ccc(C)cc2)nc2ccc(C)cn12` [Example 5d, 1-(6-Methyl-2-p-tolyl-imidazo[1,2-a]pyridin-3-yl)-heptan-2-one]: the IC50 came to 420 nM. In the case of `Cc1ccc(-c2nc3ccc(C)cn3c2CC(=O)CC(C)C)cc1` [—CH2CH(CH3)2], the half-inhibitory concentration (IC50) is more than 10000 nM.
